Source: US20150258190A1, “NICOTINAMIDE AS ADJUVANT” (NOVARTIS AG, priority 2012, published 2015)

Columns and labels:
[1] = tested on: Sta006; test: Antibody titre at day 23 by Luminex assay; format: in vivo, mouse; conditions: day 23 after first vaccination
Method: (§1) At day 23 after the first vaccination with the S. aureus combination vaccine (i.e. one day prior to the challenge with a lethal dose of S. aureus), the HlaH35L, EsxAB, Sta006 and Sta011 antibody titres for each group of mice described in Example 2 were measured by Luminex assay.

[2] = cited from earlier work
[3] = tested on: EsxAB; test: Antibody titre at day 23 by Luminex assay; format: in vivo, mice; conditions: day 23 after first vaccination
Method: as §1

[4] = tested on: HlaH35L; test: Antibody titre at day 23 by Luminex assay; format: in vivo, mice; conditions: day 23 after first vaccination
Method: as §1

[5] = tested on: Sta011; test: Antibody titre at day 23 by Luminex assay; format: in vivo, mice; conditions: day 23 after first vaccination
Method: as §1

[6] = tested on: S. aureus strain Newman; test: Survival of vaccinated or mock-injected mice after challenge with a lethal dose of live S. aureus; format: in vivo, CD1 mice
Method: Four groups of 47 to 48 CD1 mice were treated as follows: CD1 mice were immunized twice via intraperitoneal injection two weeks apart (on day 0 and day 14), and each mouse received 200 μl of (mock-)vaccine. Groups 1 (Alum-Nam) and 2 (Alum) were mock-injected with alum (saline plus 2 mg/ml aluminium-hydroxide), groups 3 (Combo-NAM) and 4 (Combo only) were immunised with the S. aureus combination vaccine of Example 1. Groups 1 (Alum-Nam) and 3 (Combo-NAM) received 250 mg/kg NAM orally one day before and one day after challenge with a lethal dose of live S. aureus.
On day 24 (i.e. 10 days after the second vaccination), the immunised animals of groups 1-4 were challenged by intraperitoneal injection of a bacterial suspension of S. aureus strain Newman (approximately 2 to 5×10^8 CFU). Cultures of S. aureus were centrifuged, washed twice and diluted in PBS before challenge. Survival of the mice was monitored over a 15-day period post infection.
Survival rates were analysed by Mann-Whitney U-test. Mice were daily monitored and euthanized according to humane endpoints, in agreement with Novartis Animal Welfare Policies.

[7] = tested on: S. aureus; conditions: NAM daily beginning 24 hours prior to or 12 hours after infection with S. aureus; cited from earlier work
[8] = cited from earlier work; remark: listed apart in the source

Compound: NC(=O)c1cccnc1 [NAM, nicotinamide]
- Sta006 antibody titre in serum, group 3 (vaccinated, NAM treatment) vs group 4 (vaccinated, no NAM treatment) [1]: No significant difference
- dose reported to be reversible hepatotoxic ([2]; animals and humans): > 3 g/day
- side effects associated with treatment of human subjects ([2]; human subjects): no significant side effects
- oncogenic / teratogenic in humans [2]: neither oncogenic nor teratogenic
- EsxAB antibody titre in serum, group 3 (vaccinated, NAM treatment) vs group 4 (vaccinated, no NAM treatment) [3]: No significant difference
- HlaH35L antibody titre in serum, group 3 (vaccinated, NAM treatment) vs group 4 (vaccinated, no NAM treatment) [4]: No significant difference
- Sta011 antibody titre in serum, group 3 (vaccinated, NAM treatment) vs group 4 (vaccinated, no NAM treatment) [5]: No significant difference
- mice that survived until 15 days post infection ([6]; CD1 mice, (mock-)vaccine i.p. day 0 and 14, i.p. challenge day 24, NAM 250 mg/kg orally one day before and one day after challenge): 9%
- mortality in comparison to mice which had received only the vaccine ([6]; mice immunized with S. aureus combination vaccine, NAM 250 mg/kg orally): significantly decreased
- protecting mice against a lethal infection with S. aureus ([6]; mice treated with alum alone, NAM 250 mg/kg orally): not effective
- immune killing of the bacteria [7]: dramatically enhances

Compound: Nc1cccc2c1CN(C1CCC(=O)NC1=O)C2=O (centres unmarked) [lenalidomide]
- oncogenic / teratogenic in humans [2]: potentially teratogenic
- bone marrow toxicity as adverse effect in patients [2]: frequently observed

Compound: Nc1cccc2c1C(=O)N(C1CCC(=O)NC1=O)C2=O (centres unmarked) [pomalidomide]
- oncogenic / teratogenic in humans [2]: potentially teratogenic
- bone marrow toxicity as adverse effect in patients [2]: frequently observed

Compound: N[C@H](CCC(=O)N[C@@H](Cc1c[nH]c2ccccc12)C(=O)O)C(=O)O [γ-D-glutamyl-L-tryptophan]
- adverse effects on administration to human subjects ([8]; human, in vivo): without adverse effects
- clinical effect on oral mucositis ([8]; humans): no clinical effect
